Drawing on publication PMC2606939 (The Journal of General Physiology, 2009), this text covers IC50 for one compound.

In assay [1] the target is CLC-0 (Torpedo marmorata, UniProt P21564, E166A). Put plainly: cell-based.
The target of assay [2] is CLC-0 (Torpedo marmorata, UniProt P21564, E166G). Put plainly: cell-based.
CLC-0 (Torpedo marmorata, UniProt P21564, E166G), sequence (P21564 whole entry E166G): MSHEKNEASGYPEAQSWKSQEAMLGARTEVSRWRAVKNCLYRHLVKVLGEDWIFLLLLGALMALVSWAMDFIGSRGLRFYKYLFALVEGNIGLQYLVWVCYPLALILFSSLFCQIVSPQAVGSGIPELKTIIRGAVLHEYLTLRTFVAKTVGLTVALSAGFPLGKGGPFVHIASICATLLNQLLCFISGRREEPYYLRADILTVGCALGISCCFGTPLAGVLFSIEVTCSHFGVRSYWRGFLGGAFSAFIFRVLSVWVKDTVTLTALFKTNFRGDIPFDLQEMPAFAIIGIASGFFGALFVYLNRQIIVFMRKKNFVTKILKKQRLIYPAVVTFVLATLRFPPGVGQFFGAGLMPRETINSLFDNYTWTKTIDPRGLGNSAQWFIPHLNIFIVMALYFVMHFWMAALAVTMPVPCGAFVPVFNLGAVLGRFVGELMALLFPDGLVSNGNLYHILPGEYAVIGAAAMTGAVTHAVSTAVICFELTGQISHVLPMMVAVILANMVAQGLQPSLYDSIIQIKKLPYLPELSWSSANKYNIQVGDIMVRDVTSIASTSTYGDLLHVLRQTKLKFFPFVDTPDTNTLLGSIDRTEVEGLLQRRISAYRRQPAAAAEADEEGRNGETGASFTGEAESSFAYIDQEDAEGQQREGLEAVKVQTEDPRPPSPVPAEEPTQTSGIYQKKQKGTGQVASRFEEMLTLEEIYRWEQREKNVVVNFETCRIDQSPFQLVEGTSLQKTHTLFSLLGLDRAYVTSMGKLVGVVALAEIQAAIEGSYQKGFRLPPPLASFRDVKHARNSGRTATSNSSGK

CLC-0 (Torpedo marmorata, UniProt P21564, E166A), sequence (P21564 whole entry E166A): as the sequence (P21564 whole entry E166G) above, with G166A counted along it

As for `CCCCCCCC(=O)O` [OA, octanoate], the IC50 was found to be 120 ± 20 µM against CLC-0 [1] and 160 ± 10 µM against CLC-0 [2].
